The test deals with human TH17 cells. Kind of test: Inhibition of IL-17 release from human TH17 cells. The format is cell-based. The conditions noted are these: isolated human TH17 cells, 4 days culture, IL-17A by HTRF; for IC50: Homo sapiens, 96 h, read-out: pIC50 IL-17 release (converted). The text has this:
Inhibition of IL-17 Release from Human TH17 Cells (IL-17 Release)
This test is designed to screen compounds for their inhibitory effect on the release of IL-17 from isolated and cultured human TH17 cells.
Peripheral blood mononuclear cells (PBMC) were isolated from heparin treated human whole blood fromhealthy donors by density gradient centrifugation. TH17 cells (CD4+CXCR3-CCR6+) were enriched using a human TH17 Cell Enrichment Kit (Stemcell Technologies) according to the manufacturer's protocol. […] On day 4 supernatants were collected and IL-17A was measured using a Human IL-17 HTRF Assay kit (Cisbio Bioassays) according to the manufacturer's protocol. […] Results
Background: TR-FRET usually uses a lanthanide donor and a delayed reading to cut background.

As for `CC1(C(=O)N2Cc3cc(S(C)(=O)=O)ccc3C2C(=O)Nc2ccc(C(O)(C(F)(F)F)C(F)(F)F)cc2)CCO1` (racemic) [Example 445], the IC50 was 25.1 nM.

For `CO[C@H](C)C(=O)N1Cc2cc(S(C)(=O)=O)ccc2C1C(=O)Nc1ccc(C(O)(C(F)(F)F)C(F)(F)F)cc1` (mixture of isomers) [Example 449, N-[4-(1,1,1,3,3,3-Hexafluoro-2-hydroxypropan-2-yl)phenyl]-2-[(2R)-2-methoxypropanoyl]-5-(methylsulfonyl)-2,3-dihydro-1H-isoindole-1-carboxamide], the IC50 was 79.4 nM.

In the case of `CC[C@@H](O)C(=O)N1Cc2cc(S(=O)(=O)NC)ccc2C1C(=O)Nc1ccc(C(O)(C(F)(F)F)C(F)(F)F)cc1` (single isomer, unassigned) [Example 303, isomer 1], the “pIC50 IL-17 release” value (listed as 303, isomer 1) was 6.7.

Regarding `CC[C@@H](O)C(=O)N1Cc2cc(S(=O)(=O)NC)ccc2C1C(=O)Nc1ccc(C(O)(C(F)(F)F)C(F)(F)F)cc1` (single isomer, unassigned) [Example 303, isomer 2], the “pIC50 IL-17 release” value (listed as 303, isomer 2) is 7.5.

For the compound `CC[C@H](O)C(=O)N1Cc2cc(S(=O)(=O)NC)ccc2C1C(=O)Nc1ccc(C(O)(C(F)(F)F)C(F)(F)F)cc1` (single isomer, unassigned) [Example 307, isomer 1, (R) or (S)N-[4-(1,1,1,3,3,3-Hexafluoro-2-hydroxypropan-2-yl)phenyl]-2-[(2S)-2-hydroxybutanoyl]-5-(methylsulfamoyl)-2,3-dihydro-1H-isoindole-1-carboxamide], for the setting “listed as 307, isomer 1”, the “pIC50 IL-17 release” value worked out at 7.5.

`CC[C@H](O)C(=O)N1Cc2cc(S(=O)(=O)NC)ccc2C1C(=O)Nc1ccc(C(O)(C(F)(F)F)C(F)(F)F)cc1` (single isomer, unassigned) [Example 307, isomer 2, (R) or (S)N-[4-(1,1,1,3,3,3-Hexafluoro-2-hydroxypropan-2-yl)phenyl]-2-[(2S)-2-hydroxybutanoyl]-5-(methylsulfamoyl)-2,3-dihydro-1H-isoindole-1-carboxamide]: for the setting “listed as 307, isomer 2”, the “pIC50 IL-17 release” value is recorded as 6.5.

Turning to `CC[C@@H](O)C(=O)N1Cc2cc(S(C)(=O)=O)ccc2C1C(=O)Nc1ccc(C(O)(C(F)(F)F)C(F)(F)F)cc1` (single isomer, unassigned) [Example 409, isomer 1], the IC50 was 63.1 nM.

For `CC(C)[C@@H](O)C(=O)N1Cc2cc(S(C)(=O)=O)ccc2C1C(=O)Nc1ccc(C(O)(C(F)(F)F)C(F)(F)F)cc1` (single isomer, unassigned) [Example 422], the IC50 is 39.8 nM.

As to `CC(C)[C@H](O)C(=O)N1Cc2cc(S(C)(=O)=O)ccc2C1C(=O)Nc1ccc(C(O)(C(F)(F)F)C(F)(F)F)cc1` (single isomer, unassigned) [Example 423], the IC50 is 79.4 nM.

`CC1(C(=O)N2Cc3cc(S(C)(=O)=O)ccc3[C@@H]2C(=O)Nc2ccc(C(O)(C(F)(F)F)C(F)(F)F)cc2)CCO1` (single isomer, unassigned) [Example 452, isomer 1]: the “pIC50 IL-17 release” value (listed as 452, isomer 1) is reported as 7.7.

For the compound `CC1(C(=O)N2Cc3cc(S(C)(=O)=O)ccc3[C@@H]2C(=O)Nc2ccc(C(O)(C(F)(F)F)C(F)(F)F)cc2)CCO1` (single isomer, unassigned) [Example 452, isomer 2], the “pIC50 IL-17 release” value (listed as 452, isomer 2) turned out to be 7.3.

For the compound `CCS(=O)(=O)c1ccc2c(c1)CNC2C(=O)Nc1ccc(C(O)(C(F)(F)F)C(F)(F)F)cc1` (centres unmarked) [Example 100, 5-(Ethylsulfonyl)-N-[4-(1,1,1,3,3,3-hexafluoro-2-hydroxypropan-2-yl)phenyl]-2,3-dihydro-1H-isoindole-1-carboxamide], the IC50 is 39.8 nM.

In the case of `CCS(=O)(=O)c1ccc2c(c1)CN(C(=O)C(F)(F)C1CC1)C2C(=O)Nc1ccc(C(O)(C(F)(F)F)C(F)(F)F)cc1` (centres unmarked) [Example 104, 2-[Cyclopropyl(difluoro)acetyl]-5-(ethylsulfonyl)-N-[4-(1,1,1,3,3,3-hexafluoro-2-hydroxypropan-2-yl)phenyl]-2,3-dihydro-1H-isoindole-1-carboxamide], the IC50 is 20 nM.

With `CCS(=O)(=O)c1ccc2c(c1)CN(C(=O)C1(C#N)CC1)C2C(=O)Nc1ccc(C(O)(C(F)(F)F)C(F)(F)F)cc1` (centres unmarked) [Example 105, 2-[(1-Cyanocyclopropyl)carbonyl]-5-(ethylsulfonyl)-N-[4-(1,1,1,3,3,3-hexafluoro-2-hydroxypropan-2-yl)phenyl]-2,3-dihydro-1H-isoindole-1-carboxamide], the IC50 was 20 nM.

As for `CCS(=O)(=O)c1ccc2c(c1)CN(C(=O)CC(C)(C)O)C2C(=O)Nc1ccc(C(O)(C(F)(F)F)C(F)(F)F)cc1` (centres unmarked) [Example 106, 5-(Ethylsulfonyl)-N-[4-(1,1,1,3,3,3-hexafluoro-2-hydroxypropan-2-yl)phenyl]-2-(3-hydroxy-3-methylbutanoyl)-2,3-dihydro-1H-isoindole-1-carboxamide], the IC50 was 63.1 nM.

`CCS(=O)(=O)c1ccc2c(c1)CN(C(=O)CC1(O)CC1)C2C(=O)Nc1ccc(C(O)(C(F)(F)F)C(F)(F)F)cc1` (centres unmarked) [Example 107, 5-(Ethylsulfonyl)-N-[4-(1,1,1,3,3,3-hexafluoro-2-hydroxypropan-2-yl)phenyl]-2-[(1-hydroxycyclopropyl)acetyl]-2,3-dihydro-1H-isoindole-1-carboxamide]: the IC50 was 50.1 nM.

Turning to `CCS(=O)(=O)c1ccc2c(c1)CN(C(=O)CC1CCC1)C2C(=O)Nc1ccc(C(O)(C(F)(F)F)C(F)(F)F)cc1` (centres unmarked) [Example 109, 2-(Cyclobutylacetyl)-5-(ethylsulfonyl)-N-[4-(1,1,1,3,3,3-hexafluoro-2-hydroxypropan-2-yl)phenyl]-2,3-dihydro-1H-isoindole-1-carboxamide], the IC50 is 20 nM.

As for `CCS(=O)(=O)c1ccc2c(c1)CN(C(=O)CC1(OC)CC1)C2C(=O)Nc1ccc(C(O)(C(F)(F)F)C(F)(F)F)cc1` (centres unmarked) [Example 112, 5-(Ethylsulfonyl)-N-[4-(1,1,1,3,3,3-hexafluoro-2-hydroxypropan-2-yl)phenyl]-2-[(1-methoxycyclopropyl)acetyl]-2,3-dihydro-1H-isoindole-1-carboxamide], the IC50 is 31.6 nM.

Consider `CCS(=O)(=O)c1ccc2c(c1)CN(C(=O)C1CCOC1)C2C(=O)Nc1ccc(C(O)(C(F)(F)F)C(F)(F)F)cc1` (centres unmarked) [Example 113, 5-(Ethylsulfonyl)-N-[4-(1,1,1,3,3,3-hexafluoro-2-hydroxypropan-2-yl)phenyl]-2-(tetrahydrofuran-3-ylcarbonyl)-2,3-dihydro-1H-isoindole-1-carboxamide], for which the IC50 is 79.4 nM.

Turning to `CCS(=O)(=O)c1ccc2c(c1)CN(C(=O)C1CCCO1)C2C(=O)Nc1ccc(C(O)(C(F)(F)F)C(F)(F)F)cc1` (centres unmarked) [Example 114, 5-(Ethylsulfonyl)-N-[4-(1,1,1,3,3,3-hexafluoro-2-hydroxypropan-2-yl)phenyl]-2-(tetrahydrofuran-2-ylcarbonyl)-2,3-dihydro-1H-isoindole-1-carboxamide], the IC50 was 31.6 nM.

For the compound `CCS(=O)(=O)c1ccc2c(c1)CN(C(=O)CC1(N(C)C)CC1)C2C(=O)Nc1ccc(C(O)(C(F)(F)F)C(F)(F)F)cc1` (centres unmarked) [Example 115, 2-{[1-(Dimethylamino)cyclopropyl]acetyl}-5-(ethylsulfonyl)-N-[4-(1,1,1,3,3,3-hexafluoro-2-hydroxypropan-2-yl)phenyl]-2,3-dihydro-1H-isoindole-1-carboxamide], the IC50 is 63.1 nM.

Consider `CCS(=O)(=O)c1ccc2c(c1)CN(C(=O)CC#N)C2C(=O)Nc1ccc(C(O)(C(F)(F)F)C(F)(F)F)cc1` (centres unmarked) [Example 116, 2-(Cyanoacetyl)-5-(ethylsulfonyl)-N-[4-(1,1,1,3,3,3-hexafluoro-2-hydroxypropan-2-yl)phenyl]-2,3-dihydro-1H-isoindole-1-carboxamide], for which the IC50 is 200 nM.

As for `CCS(=O)(=O)c1ccc2c(c1)CN(C(=O)C1(CO)CC1)C2C(=O)Nc1ccc(C(O)(C(F)(F)F)C(F)(F)F)cc1` (centres unmarked) [Example 117, 5-(Ethylsulfonyl)-N-[4-(1,1,1,3,3,3-hexafluoro-2-hydroxypropan-2-yl)phenyl]-2-{[1-(hydroxymethyl)cyclopropyl]carbonyl}-2,3-dihydro-1H-isoindole-1-carboxamide], the IC50 was 79.4 nM.

In the case of `O=C(Nc1ccc(C(O)(C(F)(F)F)C(F)(F)F)cc1)C1NCc2cc(S(=O)(=O)CC3CC3)ccc21` (centres unmarked) [Example 200, 5-[(Cyclopropylmethyl)sulfonyl]-N-[4-(1,1,1,3,3,3-hexafluoro-2-hydroxypropan-2-yl)phenyl]-2,3-dihydro-1H-isoindole-1-carboxamide], the IC50 was 31.6 nM.

As for `CCOC(=O)N1Cc2cc(S(=O)(=O)CC3CC3)ccc2C1C(=O)Nc1ccc(C(O)(C(F)(F)F)C(F)(F)F)cc1` (centres unmarked) [Example 204, Ethyl 5-[(cyclopropylmethyl)sulfonyl]-1-{[4-(1,1,1,3,3,3-hexafluoro-2-hydroxypropan-2-yl)phenyl]carbamoyl}-1,3-dihydro-2H-isoindole-2-carboxylate], the IC50 was 7.94 nM.

Regarding `COC1(CC(=O)N2Cc3cc(S(=O)(=O)CC4CC4)ccc3C2C(=O)Nc2ccc(C(O)(C(F)(F)F)C(F)(F)F)cc2)CC1` (centres unmarked) [Example 205, 5-[(Cyclopropylmethyl)sulfonyl]-N-[4-(1,1,1,3,3,3-hexafluoro-2-hydroxypropan-2-yl)phenyl]-2-[(1-methoxycyclopropyl)acetyl]-2,3-dihydro-1H-isoindole-1-carboxamide], the IC50 was 15.8 nM.
